According to publication doi:10.1101/2024.03.08.583891v2 (biorxiv, 2024):
Where two headings read alike, the source gives them in different places.

Columns and labels:
Experiment in all cases: tissue or organelle
Settings in all cases: read-out: Intrinsec activity %
[1] = molecular target: T1, NMDA receptor histamine site (NMDA(HA)R), native NMDAR of rat hippocampal synaptosomes (Rattus norvegicus, UniProt P35439+Q00960)
[2] = molecular target: T1, NMDA receptor histamine site (NMDA(HA)R), native NMDAR of rat hippocampal synaptosomes; remark: listed apart in the source
[3] = molecular target: T1, NMDA receptor histamine site (NMDA(HA)R), native NMDAR of rat hippocampal synaptosomes; remark: listed apart in the source
[4] = molecular target: T1, NMDA receptor histamine site (NMDA(HA)R), native NMDAR of rat hippocampal synaptosomes; remark: listed apart in the source
[5] = molecular target: T1, NMDA receptor histamine site (NMDA(HA)R), native NMDAR of rat hippocampal synaptosomes; remark: listed apart in the source
[6] = molecular target: T1, NMDA receptor histamine site (NMDA(HA)R), native NMDAR of rat hippocampal synaptosomes; remark: listed apart in the source
[7] = molecular target: T1, NMDA receptor histamine site (NMDA(HA)R), native NMDAR of rat hippocampal synaptosomes; remark: listed apart in the source
[8] = molecular target: T1, NMDA receptor histamine site (NMDA(HA)R), native NMDAR of rat hippocampal synaptosomes; remark: listed apart in the source

T1 sequence (Q00960 27-1482, other chains not shown): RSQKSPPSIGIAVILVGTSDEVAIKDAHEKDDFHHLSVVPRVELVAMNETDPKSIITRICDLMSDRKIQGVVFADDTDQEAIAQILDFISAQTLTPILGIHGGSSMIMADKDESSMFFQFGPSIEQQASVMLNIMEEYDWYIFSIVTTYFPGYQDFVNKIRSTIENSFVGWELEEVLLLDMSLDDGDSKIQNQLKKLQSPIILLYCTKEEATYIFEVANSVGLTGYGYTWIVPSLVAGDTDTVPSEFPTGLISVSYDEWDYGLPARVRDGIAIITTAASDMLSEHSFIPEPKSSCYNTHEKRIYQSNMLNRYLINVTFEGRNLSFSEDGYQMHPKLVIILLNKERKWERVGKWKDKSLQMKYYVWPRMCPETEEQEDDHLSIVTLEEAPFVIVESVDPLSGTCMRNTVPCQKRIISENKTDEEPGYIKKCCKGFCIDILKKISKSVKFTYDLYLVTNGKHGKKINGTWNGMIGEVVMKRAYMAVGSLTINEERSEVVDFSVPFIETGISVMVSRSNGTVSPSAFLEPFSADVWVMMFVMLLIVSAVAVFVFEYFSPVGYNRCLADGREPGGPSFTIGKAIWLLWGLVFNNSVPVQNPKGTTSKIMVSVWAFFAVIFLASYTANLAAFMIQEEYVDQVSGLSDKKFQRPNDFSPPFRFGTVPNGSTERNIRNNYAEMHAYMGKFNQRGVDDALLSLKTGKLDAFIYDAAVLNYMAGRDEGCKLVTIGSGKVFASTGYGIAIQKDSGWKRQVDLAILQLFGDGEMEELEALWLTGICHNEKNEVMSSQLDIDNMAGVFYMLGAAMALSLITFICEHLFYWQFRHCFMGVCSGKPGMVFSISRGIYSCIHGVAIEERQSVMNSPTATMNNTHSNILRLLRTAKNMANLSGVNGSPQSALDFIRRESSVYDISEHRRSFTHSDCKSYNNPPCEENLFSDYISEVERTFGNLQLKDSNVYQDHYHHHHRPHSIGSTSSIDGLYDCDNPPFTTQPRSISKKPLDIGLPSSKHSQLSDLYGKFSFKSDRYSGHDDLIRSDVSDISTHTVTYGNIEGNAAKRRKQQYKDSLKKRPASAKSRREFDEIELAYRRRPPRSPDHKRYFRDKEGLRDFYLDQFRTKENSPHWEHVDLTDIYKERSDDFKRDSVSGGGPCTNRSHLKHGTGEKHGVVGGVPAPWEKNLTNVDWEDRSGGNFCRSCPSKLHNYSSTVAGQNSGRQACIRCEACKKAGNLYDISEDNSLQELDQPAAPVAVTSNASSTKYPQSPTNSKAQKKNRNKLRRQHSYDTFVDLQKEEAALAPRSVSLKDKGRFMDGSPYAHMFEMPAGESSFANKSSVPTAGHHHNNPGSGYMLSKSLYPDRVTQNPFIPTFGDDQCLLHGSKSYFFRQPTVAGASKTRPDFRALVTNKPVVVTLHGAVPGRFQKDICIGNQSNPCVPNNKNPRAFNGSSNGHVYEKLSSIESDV

Cc1sc(N)nc1CCCN [Fub 241]
Emax [1]: 53%

Nc1nc2ccc(CCNCCc3ccccc3)cc2s1 [Fub 281]
Emax [2]: 30%

Cc1sc(N)nc1CCCCN [Fub 302]
Emax [1]: 29%

CCCCCNCCc1ccc2nc(N)sc2c1 [Fub 287]
Emax [3]: 30%

NCCCCCc1cnc(N)s1 [Fub 295]
Emax [4]: 41%

NCCCCCc1csc(N)n1 [Fub 216]
Emax [1]: 20%

CC(C)(C)NCCc1ccc2nc(N)sc2c1 [Fub 289]
Emax [3]: 23%

COc1ccc(CCNCCc2ccc3nc(N)sc3c2)cc1 [Fub 298]
Emax [2]: 19%

CCc1nc(N)sc1CCCCN [Fub 309]
Emax [5]: 40%

Nc1nc2ccc(CCNCc3ccccc3)cc2s1 [Fub 299]
Emax [2]: 36%

Nc1nc2ccc(CCNCCCCc3ccccc3)cc2s1 [FUBn293]
Emax [6]: 39%

Cc1nc(N)sc1CCCCN [Fub 217]
Emax [5]: 52%

NCCCCCCc1csc(N)n1 [Fub 239]
Emax [1]: 23%

CCCC(C)(C)NCCc1ccc2nc(N)sc2c1 [Fub 291]
Emax [3]: 32%

Nc1nc(C2CCC(N)CC2)c[se]1 (stereo not shown) [Fub 210]
Emax [4]: 33%

CCCNCCc1ccc2nc(N)sc2c1 [Fub 276]
Emax [3]: 15%

NCCc1ccc2nc(N)sc2c1 [Fub 247]
Emax [7]: 48%

CCc1nc(N)sc1CCN [Fub 240]
Emax [5]: 82%

CCCCCCNCCc1ccc2nc(N)sc2c1 [Fub 288]
Emax [3]: 35%

Nc1nc2ccc(CCNCCCCCCc3ccccc3)cc2s1 [Fub 307]
Emax [2]: 33%

CCCCCCCCNCCc1ccc2nc(N)sc2c1 [Fub 304]
Emax [3]: 33%

CCCCCCCCCNCCc1ccc2nc(N)sc2c1 [Fub 305]
Emax [3]: 30%

NCCCCc1cnc(N)s1 [Fub 218]
Emax [4]: 81%

Nc1nc(C2CCC(N)CC2)cs1 (stereo not shown) [Fub 206]
Emax [4]: 40%

CCc1nc(N)sc1CCCN [Fub 301]
Emax [5]: 61%

CC1(C)C(C(=O)c2cn(Cc3ccc(F)cc3)c3ccccc23)C1(C)C [Fub 144]
Emax [4]: 35%

Cc1sc(N)nc1/C=C/CN [Fub 242]
Emax [4]: 75%

NCc1ccc2nc(N)sc2c1 [Fub 223]
Emax [7]: 34%

NCCCCCCc1cnc(N)s1 [Fub 296]
Emax [4]: 41%

CCN(CCc1ccccc1)C1CCc2cc(OC)c(OC)cc2C1 (stereo not shown) [ST 577]
Emax [3]: 25%

Clc1nc2ccc(CCNCCCCc3ccccc3)cc2s1 [ST 575]
Emax [3]: 40%

Cc1nc(N)sc1CCCCCN [Fub 238]
Emax [5]: 50%

CCNCCc1ccc2nc(N)sc2c1 [Fub 275]
Emax [3]: 15%

NCCc1ccc2nc(N)[se]c2c1 [Fub 300]
Emax [7]: 45%

COc1cc2c(cc1OC)CC(NCC(O)c1ccc(C(F)(F)F)cc1)CC2 (stereo not shown) [ST 590]
Emax [8]: 30%

COc1ccc(C(O)CNC2CCc3cc(OC)c(OC)cc3C2)cc1 (stereo not shown) [ST 578]
Emax [3]: 30%

CCCCNCCc1ccc2nc(N)sc2c1 [Fub 286]
Emax [3]: 31%

Cc1ccc(CCNCCc2ccc3nc(N)sc3c2)cc1 [Fub 297]
Emax [2]: 32%

Nc1nc2ccc(CCNCCCc3ccccc3)cc2s1 [Fub 292]
Emax [2]: 32%

COc1cc2c(cc1OC)CC(NCC(O)c1ccc(C)cc1)CC2 (stereo not shown) [ST 563]
Emax [3]: 50%

CCCNC1CCc2ncsc2C1 (stereo not shown) [ST 581]
Emax [8]: 50%

CCCCCCCNCCc1ccc2nc(N)sc2c1 [Fub 303]
Emax [3]: 33%

CCN(CC(O)c1ccc(C(F)(F)F)cc1)C1CCc2cc(OC)c(OC)cc2C1 (stereo not shown) [ST 592]
Emax [8]: 30%

CCC(C)(C)NCCc1ccc2nc(N)sc2c1 [Fub 290]
Emax [3]: 27%

COc1cc2c(cc1OC)CC(NCC(O)c1ccc(F)cc1)CC2 (stereo not shown) [ST 593]
Emax [8]: 25%

Nc1nc2ccc(CCNCC3CCCCC3)cc2s1 [Fub 266]
Emax [2]: 48%

Nc1nc2ccc(CCNCCCCCc3ccccc3)cc2s1 [Fub 306]
Emax [2]: 33%

Nc1nc(C2CCCC(N)C2)cs1 (stereo not shown) [Fub 235]
Emax [4]: 38%

Sc1nc2ccc(SCCNCCCCc3ccccc3)cc2s1 [ST 576]
Emax [3]: 38%
